Reference: patent US4486593A, “2-,3-, or 4-Pyridinylmethylamino arylic acids as thromboxane A2 synthetase and 5-lipoxygenase inhibitors” (The Upjohn Company, priority 1983, dated 1984)
pIC50: −log10 of the molar value.

System: 5-lipoxygenase
Assay: 5-lipoxygenase inhibition: oxygen uptake of washed human platelets after arachidonic acid (oxygraph cells)
Format: cell-based
Conditions: arachidonic acid added to washed human platelets; oxygen uptake versus control cell; read-out: approximate ED50, 5-lipoxygenase inhibition (decrease of oxygen uptake)
Method: The compounds of the present invention were also tested for 5-lipoxygenase inhibition. Arachidonic acid is added to washed human platlets and the oxygen uptake is measured using oxygraph cells. A decrease of oxygen uptake versus the control cell indicates inhibition of lipoxygenase. For a fuller description of the procedure see, Wallach, et al., Biochim. Biophys. Acta. 231:445 (1976).

Question: `COC(=O)c1cc(NCc2cccnc2)ccc1O` [Example 3, 5-(3-Pyridinylmethylamino)salicylic Acid, Methyl Ester] was tested. Which pIC50 did it give?
Answer: Its pIC50 is roughly 5.00.
